Assay results as given in patent publication US9073853B2, “Cycloalkane carboxylic acid derivatives as CXCR3 receptor antagonists” (Sanofi, priority 2011, dated 2015).

target: human CXCR3-A receptor (Homo sapiens (Human), UniProt P49682); experiment: 125I-CXCL10 competition radioligand binding assay; settings: displacement of 125I-CXCL10 from membranes of CHO cells expressing human recombinant CXCR3-A
Procedure: IC50 values were determined for the test compounds and used to explore the structure-activity relationships (SAR). […] This cell line was registered in Sanofi-Aventis cell line bank. […] Cell suspension was diluted with PBS and cells were collected with centrifugation at 230 g for 10 minutes at 10° C. with a Juan centrifuge. […] The supernatant was carefully collected and centrifuged at 100,000×g for 60 min at 4° with a Beckman Avanti J30 centrifuge. […] Protein concentration was determined with Bio-Rad protein assay (Cat No 500-0006). Membrane aliquots were stored at -80° C. […] The composition of the binding assay buffer was determined in a course of detailed optimization procedure. […] Binding reaction was initiated by adding of membranes (10-20 μg proteins, approximately 5×10^5 cell equivalents) to the reaction mixture. After 60 minutes of incubation at 25° C. the reaction was terminated by rapid filtration over GF/B glass fiber filters that were pre-soaked with 0.5% polyethyleneimine (Fluka Analytical, P3143) for 1 hour, using a Skatron cell harvester device. Filters then were washed with 8 ml of ice-cold wash buffer (modified binding buffer in which BSA was omitted and the concentration of NaCl was adjusted to 500 mM concentration). The radioactivity retained on the filters was measured by a Wizard 1470 Automatic Gamma counter. Test compounds were dissolved prior to the binding assay at a concentration of 10 mM in DMSO. Stock solutions were stored at -20° C. for not longer than 3 months. […] Before adding these solutions of test compound to the binding reaction mixture, an intermediate dilution procedure was applied, in which 30 μL of each solution sample was transferred into a dilution tube containing 970 μL of binding assay buffer. […] The IC50 values and Hill slopes for competition binding data were obtained using nonlinear four-parametric curve fitting method.

human CXCR3-A receptor, sequence (P49682 whole entry): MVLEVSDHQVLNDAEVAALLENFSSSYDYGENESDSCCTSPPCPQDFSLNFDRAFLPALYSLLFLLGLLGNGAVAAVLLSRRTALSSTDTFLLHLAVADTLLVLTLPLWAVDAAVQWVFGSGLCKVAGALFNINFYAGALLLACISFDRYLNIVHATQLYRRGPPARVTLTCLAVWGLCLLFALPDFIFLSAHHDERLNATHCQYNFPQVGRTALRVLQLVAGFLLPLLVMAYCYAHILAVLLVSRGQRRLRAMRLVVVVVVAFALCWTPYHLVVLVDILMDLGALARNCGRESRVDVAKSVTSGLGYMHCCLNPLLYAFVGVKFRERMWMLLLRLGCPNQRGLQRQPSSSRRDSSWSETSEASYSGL

| SMILES | IC50 |
| --- | --- |
| COc1cc(CN(C[C@H]2CC[C@H](C(=O)O)CC2)C2CCc3cc(Cl)ccc32)ccc1OCCn1c(=O)ccn(C)c1=O (stereo partly drawn) [Example 48, trans-4-[((5-Chloro-indan-1-yl)-{3-methoxy-4-[2-(3-methyl-2,6-dioxo-3,6-dihydro-2H-pyrimidin-1-yl)-ethoxy]-benzyl}-amino)-methyl]-cyclohexanecarboxylic acid] | 409 nM |
| CCc1cc(CN(C[C@H]2CC[C@H](C(=O)O)CC2)C2CCc3c2ccc(F)c3Cl)ccc1OCCN1C(=O)CCC1=O (stereo partly drawn) [Example 96, trans-4-[((4-Chloro-5-fluoro-indan-1-yl)-{4-[2-(2,5-dioxo-pyrrolidin-1-yl)-ethoxy]-3-ethyl-benzyl}-amino)-methyl]-cyclohexanecarboxylic acid] | 443 nM |
| Cc1cc(CN(C[C@H]2CC[C@H](C(=O)O)CC2)[C@H]2CCc3cc(Cl)ccc32)ccc1OCCN1C(=O)CCC1=O [Example 30, trans-4-[(((S)-5-Chloro-indan-1-yl)-{4-[2-(2,5-dioxo-pyrrolidin-1-yl)-ethoxy]-3-methyl-benzyl}-amino)-methyl]-cyclohexanecarboxylic acid] | 53 nM |
| COc1cc(CN(C[C@H]2CC[C@H](C(=O)O)CC2)C2CCc3cc(Cl)ccc32)ccc1CCCN1C(=O)CCC1=O (stereo in doubt) [Example 46, trans-4-[(((S)-5-Chloro-indan-1-yl)-{4-[3-(2,5-dioxo-pyrrolidin-1-yl)-propyl]-3-methoxy-benzyl}-amino)-methyl]-cyclohexanecarboxylic acid] | 1000 nM |

Other lines, results leading:

| IC50 | SMILES |
| --- | --- |
| 160 nM | CCC(c1ccc(Cl)cc1)N(Cc1ccc(OCCN2C(=O)CN(C)C2=O)c(OC)c1)C[C@H]1[C@H](C(=O)O)C1(C)C (stereo partly drawn) [Example 116, (1S,3S)-3-[([1-(4-Chloro-phenyl)-propyl]-{3-methoxy-4-[2-(3-methyl-2,5-dioxo-imidazolidin-1-yl)-ethoxy]-benzyl}-amino)-methyl]-2,2-dimethyl-cyclopropanecarboxylic acid] |
| 195 nM | COc1cc(CN(C[C@H]2CC[C@H](C(=O)O)CC2)C(C)c2ccc3c(c2)CCO3)ccc1OCCn1c(=O)ccn(C)c1=O (stereo partly drawn) [Example 59, trans-4-[([1-(2,3-Dihydro-benzofuran-5-yl)-ethyl]-{3-methoxy-4-[2-(3-methyl-2,6-dioxo-3,6-dihydro-2H-pyrimidin-1-yl)-ethoxy]-benzyl}-amino)-methyl]-cyclohexanecarboxylic acid] |
| 71 nM | C[C@@H](c1ccc(Cl)cc1)N(Cc1ccc(OCCN2C(=O)CCC2=O)c(CO)c1)C[C@H]1CC[C@H](C(=O)O)CC1 [Example 85, trans-4-[([(S)-1-(4-Chloro-phenyl)-ethyl]-{4-[2-(2,5-dioxo-pyrrolidin-1-yl)-ethoxy]-3-hydroxymethyl-benzyl}-amino)-methyl]-cyclohexanecarboxylic acid] |
| 120 nM | COc1cc(CN(C(C)c2ccc(Cl)c(F)c2)[C@H]2C[C@@H](C(=O)O)C2)ccc1OCCN1C(=O)CCC1=O (stereo partly drawn) [Example 142, cis-3-([1-(4-Chloro-3-fluoro-phenyl)-ethyl]-{4-[2-(2,5-dioxo-pyrrolidin-1-yl)-ethoxy]-3-methoxy-benzyl}-amino)-cyclobutanecarboxylic acid] |
| 215 nM | COc1cc(CN(C[C@H]2CC[C@H](C(=O)O)CC2)[C@@H](C)c2ccc(Cl)cc2)ccc1CCCN1C(=O)CCC1=O [Example 56, trans-4-[([(S)-1-(4-Chloro-phenyl)-ethyl]-{4-[3-(2,5-dioxo-pyrrolidin-1-yl)-propyl]-3-methoxy-benzyl}-amino)-methyl]-cyclohexanecarboxylic acid] |
| 112 nM | CC(c1ccc2c(c1)CCO2)N(Cc1ccc(OCCN2C(=O)CN(C)C2=O)c(Cl)c1)C[C@H]1CC[C@H](C(=O)O)CC1 (stereo partly drawn) [Example 22, trans-4-({{3-Chloro-4-[2-(3-methyl-2,5-dioxo-imidazolidin-1-yl)-ethoxy]-benzyl}-[1-(2,3-dihydro-benzofuran-5-yl)-ethyl]-amino}-methyl)-cyclohexanecarboxylic acid] |
